Experimental data reported in patent publication US12221432B2, “Estrogen receptor antagonist” (CHIA TAI TIANQING PHARMACEUTICAL GROUP CO., LTD., priority 2018, dated 2025).
Counter-ions that a name gives are not always drawn.

How the values were obtained:
CYP2C9 = biological target: T1, CYP2C9 (Homo sapiens, UniProt P11712); assay: Cytochrome P450 isoenzyme inhibition, CYP2C9; type: in vitro ADME; settings: human liver microsomes; read-out: CYP enzyme inhibition (IC50) 2C9
T1 construct: tissue Corning Co., Ltd; host or cells: human liver microsomes
From the text: (§1) Experimental objective: To determine the inhibitory effect of the test compound on the activity of human liver microsomal cytochrome P450 isoenzymes (CYP1A2, CYP2C9, CYP2C19, CYP2D6 and CYP3A4; Corning Co., Ltd.). […]

[1] = Pharmacokinetics study in rats (cassette); type: in vivo; settings: female, SD, plasma, rat cassette PK
From the text: (§2) Experimental objective: To determine the drug concentration in the plasma of the rats at different times after intravenous and oral administration of the test compounds by LC/MS/MS using female SD rats as the test animals. To investigate the pharmacokinetic performance of the test compounds in rats and to evaluate the pharmacokinetic characteristics.
Test animals: 4 healthy female SD rats were divided into 2 groups according to according to the principle of similar weight, 2 in the IV group and 2 in the PO group. Animal used in this study were purchased from Beijing Vital River Laboratory Animal Technology Co., Ltd.
(§3) IV group: Appropriate amounts of compounds were weighed respectively, prepared into 2 mg/mL solutions, then mixed to give a 0.5 mg/mL solution, which was stirred and ultrasonicated until a clear state. The vehicle was 15% HP-b-CD.
(§4) PO group: An appropriate amount of the IV group solution was taken and diluted to 0.4 mg/mL with 15% HP-b-CD.
(§5) Administration: After fasting overnight, the IV group was administered intravenously, and the dose of the test compound was 1 mg/kg; the PO group was administered intragastrically, and the dose of the test compound was 2 mg/kg.
(§6) Procedures: For IV group, 200 μL of blood was collected from the jugular vein of the female SD rats at 0.0833, 0.25, 0.5, 1, 2, 4, 8, and 24 hours post-dose, and placed in a commercial anticoagulant tube with EDTA-K2 added in advance. For PO group, 200 μL of blood was collected from the jugular vein of the female SD rats at 0.25, 0.5, 1, 2, 4, 8, 12 and 24 hours post-dose, and placed in a commercial anticoagulant tube with EDTA-K2 added in advance. The blood samples were centrifuged (3,200 g, 4° C., 10 minutes) to give plasma samples, which was transferred to a pre-cooled centrifuge tube, frozen in dry ice, and stored in an ultra-low temperature freezer at −60° C. or lower until the LC-MS/MS analysis. The animals were given free access to food 4 hours after the administration. LC/MS/MS method was used to determine the content of the test compounds in the plasma of […] after intravenous and oral administration. The linear range of the method is 2.00-2000 nM.

[2] = Pharmacokinetics study in mice (cassette); type: in vivo; settings: female, Balb/c, plasma, mouse cassette PK
From the text: as §2, with “Objective:” for “Experimental objective:”, “mice” for “rats”, “Balb/c mice” for “SD rats”
Test animals: 4 healthy female Balb/c mice were divided into 2 groups according to the principle of similar weight, 2 in the IV group and 2 in the PO group. The animals were purchased from Shanghai Lingchang Biotechnology Co., Ltd.
as §3, §4, §5
as §6, with “group, 30” for “group, 200”, “the saphenous” for “the jugular”, “female Balb/c mice” for “female SD rats”

CYP2C19 = biological target: T2, CYP2C19 (Homo sapiens, UniProt P33261); assay: Cytochrome P450 isoenzyme inhibition, CYP2C19; type: in vitro ADME; settings: human liver microsomes; read-out: CYP enzyme inhibition (IC50) 2C19
T2 construct: tissue Corning Co., Ltd; host or cells: human liver microsomes
From the text: as §1

[3] = iv, i.v. 1 mg/kg, read-out: Vdss

T1 sequence (P11712 whole entry): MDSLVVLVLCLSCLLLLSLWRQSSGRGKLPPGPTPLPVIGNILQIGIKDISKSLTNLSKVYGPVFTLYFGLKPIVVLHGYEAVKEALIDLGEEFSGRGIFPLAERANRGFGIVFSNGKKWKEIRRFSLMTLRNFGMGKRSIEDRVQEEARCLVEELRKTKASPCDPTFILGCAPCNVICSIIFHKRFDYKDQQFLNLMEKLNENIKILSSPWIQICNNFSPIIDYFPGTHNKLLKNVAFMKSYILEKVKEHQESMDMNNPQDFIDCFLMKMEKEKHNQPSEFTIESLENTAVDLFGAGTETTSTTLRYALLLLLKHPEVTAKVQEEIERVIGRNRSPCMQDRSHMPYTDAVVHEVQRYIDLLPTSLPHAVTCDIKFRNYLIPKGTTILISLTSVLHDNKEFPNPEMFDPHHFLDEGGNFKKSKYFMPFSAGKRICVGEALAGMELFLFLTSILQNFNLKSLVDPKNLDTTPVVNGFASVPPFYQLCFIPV
T2 sequence (P33261 whole entry): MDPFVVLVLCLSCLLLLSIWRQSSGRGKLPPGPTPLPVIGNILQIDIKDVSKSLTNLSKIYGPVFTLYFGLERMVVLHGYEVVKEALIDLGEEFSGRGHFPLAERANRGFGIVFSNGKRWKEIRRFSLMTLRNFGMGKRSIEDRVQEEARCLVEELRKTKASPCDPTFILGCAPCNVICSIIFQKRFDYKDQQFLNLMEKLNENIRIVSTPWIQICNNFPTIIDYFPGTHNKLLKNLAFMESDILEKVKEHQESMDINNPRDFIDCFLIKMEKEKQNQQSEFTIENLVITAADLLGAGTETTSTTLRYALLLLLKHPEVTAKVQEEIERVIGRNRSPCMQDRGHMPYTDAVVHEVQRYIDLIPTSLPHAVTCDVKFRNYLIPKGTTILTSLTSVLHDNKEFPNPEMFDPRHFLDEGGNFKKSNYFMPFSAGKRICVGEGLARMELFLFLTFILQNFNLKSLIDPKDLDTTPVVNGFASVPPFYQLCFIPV

- IC50 (CYP2C9): 8.4 µM
- AUC(0-t) ([1]; iv, i.v. 1 mg/kg): 3.55 µM·h
- clearance ([1]; iv, i.v. 1 mg/kg): 8.14 mL/min/kg
- half-life ([1]; iv, i.v. 1 mg/kg): 6.65 h
- Vd [1, 3]: 4.46 L/kg
- AUC(0-t) ([1]; po, p.o. 2 mg/kg): 5.21 µM·h
- Cmax ([1]; po, p.o. 2 mg/kg): 464 nM
- Tmax ([1]; po, p.o. 2 mg/kg): 2 h
- bioavailability ([1]; po, p.o. 2 mg/kg): 73.3%
- AUC(0-t) ([2]; iv, i.v. 1 mg/kg): 2.43 µM·h
- clearance ([2]; iv, i.v. 1 mg/kg): 12.9 mL/min/kg
- half-life ([2]; iv, i.v. 1 mg/kg): 3.37 h
- Vd [2, 3]: 3.46 L/kg
- AUC(0-t) ([2]; po, p.o. 2 mg/kg): 1.27 µM·h
- Cmax ([2]; po, p.o. 2 mg/kg): 224 nM
- Tmax ([2]; po, p.o. 2 mg/kg): 0.25 h
- bioavailability ([2]; po, p.o. 2 mg/kg): 26.1%
- half-life ([2]; po, p.o. 2 mg/kg): 8.12 h
- IC50 (CYP2C19): 3.9 µM
Structure (SMILES): CC/C(=C(/c1ccc(OCCNC/C=C/C(=O)N(C)C)nc1)c1[nH]c2ccccc2c1Cl)c1ccccc1 [Compound 3 monohydrochloride]
